Data set [1] in a line: Long term and accelerated storage stability of the solid state form. The class given is physicochemical.
Data set [2] in a line: Thermodynamic stability (resistance to polymorphic conversion) compared with forms I and II of WO'222. It counts as physicochemical. As to conditions: compared to forms I and II of Nilotinib fumarate described in WO'222.
Excerpt: As used herein, and unless indicated otherwise, the term “thermo-dynamical stability” in relation to solid state forms of the present disclosure refers to resistance of the solid state form to polymorphic conversion under certain conditions, for example, heating, melting or dissolving. […] In some embodiments, the conversion is about 1% (w/w) to about 20% (w/w), about 1% (w/w) to about 10% (w/w) or about 1% (w/w) to about 5% (w/w).

For the substance “Nilotinib fumarate [Form III of Nilotinib fumarate]”, the “chemical and polymorphic stability” value in data set [1] (accelerated stability conditions at 25° C./60% RH with desiccant) was “chemically and polymorphically stable”; in data set [1] (long term stability conditions at 5° C.) it was “chemically and polymorphically stable”. The thermodynamic stability entry in data set [2] is recorded as “thermodynamically more stable”.

The values above are taken from patent US10640487B2, “Solid state forms of Nilotinib salts” (Teva Pharmaceuticals USA, Inc., priority 2016, dated 2020).
